Results taken from PMC8452301 (CPT: Pharmacometrics & Systems Pharmacology, 2021).
Like-named read-outs stand apart in the source and are kept apart here.

Columns and labels:
[1] = cited from earlier work
[2] = assay type: in vivo, human; details: observed
[3] = cited from earlier work; remark: listed apart in the source
[4] = Physicochemical input parameters; details: high solubility–high permeability
[5] = cited from earlier work; remark: listed apart in the source
[6] = 4-mg single dose, geometric mean, observed N=7
[7] = 4-mg single dose, mean, observed N=7
[8] = 4-mg single dose, median, observed N=7
[9] = 4-mg, q.d. dosing, geometric mean, observed N=5
[10] = 4-mg, q.d. dosing, mean, observed N=5
[11] = 9-mg q.d. dosing, geometric mean, observed N=6
[12] = 9-mg q.d. dosing, mean, observed N=6
[13] = 9-mg q.d. dosing, median, observed N=6
[14] = 9-mg single dose, geometric mean, observed N=9
[15] = 9-mg single dose, mean, observed N=9
[16] = 9-mg single dose, median, observed N=9
[17] = 4-mg single dose, no inhibitor, Cohort A n=17, mean
[18] = 4-mg with 200-mg q.d. itraconazole, Cohort C, geometric mean
[19] = 4-mg with 200-mg q.d. itraconazole, Cohort C, mean
[20] = 4-mg with 400-mg q.d. fluconazole, Cohort B, geometric mean
[21] = 4-mg with 400-mg q.d. fluconazole, Cohort B, mean

## COc1cc(OC)cc(N(CCNC(C)C)c2ccc3ncc(-c4cnn(C)c4)nc3c2)c1 [erdafitinib]
[1]; [6]
  AUC0–72: 6022 ng·h/mL
  Cmax: 163 ng/mL
[1]; [7]
  AUC0–72: 6743 ng·h/mL
  Cmax: 182 ng/mL
[1]; [8]
  AUC0–72: 6360 ng·h/mL
  Cmax: 173 ng/mL
[1]; [9]
  AUCtau: 12,064 ng·h/ml
  Cmax: 630 ng/mL
[1]; [10]
  AUCtau: 13,516 ng·h/ml
  Cmax: 675 ng/mL
[1]; 4-mg, q.d. dosing, median, observed N=5
  Cmax: 569 ng/mL
[1]; [11]
  AUCtau: 36,608 ng·h/ml
  Cmax: 1911 ng/mL
[1]; [12]
  AUCtau: 39,587 ng·h/ml
  Cmax: 2018 ng/mL
[1]; [13]
  AUCtau: 30,594 ng·h/ml
  Cmax: 1765 ng/mL
[1]; [14]
  AUC0–72: 15,091 ng·h/ml
  Cmax: 390 ng/mL
[1]; [15]
  AUC0–72: 17,564 ng·h/ml
  Cmax: 431 ng/mL
[1]; [16]
  AUC0–72: 16,053 ng·h/ml
  Cmax: 389 ng/mL
[2]
  difference in total exposure, patients with cancer versus healthy subjects: ~ 1.4 fold
[3]; over ~ 16 days
  unchanged drug recovered in feces: 17%
[3]; within the first 3 days
  unchanged drug recovered in feces: < 5 % of the dose
[4]
  Biopharmaceutics Classification System class: Class 1
[5]; 4-mg single dose, no inhibitor, Cohort A n=17, geometric mean
  AUCinf: 8777 ng·h/mL
[5]; [17]
  AUCinf: 9145 ng·h/mL
  Cmax: 138 ng/mL
[5]; [18]
  AUCinf: 11,785 ng·h/ml
  Cmax: 140 ng/mL
[5]; [19]
  AUCinf: 12,228 ng·h/ml
  Cmax: 145 ng/mL
[5]; [20]
  AUCinf: 13,060 ng·h/ml
  Cmax: 162 ng/mL
[5]; [21]
  AUCinf: 14,233 ng·h/ml
  Cmax: 177 ng/mL
